System: lymph node cells from B10.RQB3-DRB1*1502 positive and negative littermates (H-2A^q)
Test: T cell proliferation assay, lymph node cells of immunized B10.RQB3 mice
Assay type: cell-based, mouse
Settings: for T cell response of DRB1*1502 transgene positive animals compared with negative littermates / B10.RQB3 controls: mice immunized with 200 μg HII 250-270 in CFA, in vitro HII 250-270 4, 20, 100 μg/ml, PPD 20, LPS 40, Con A 10 μg/ml, FIG. 2

Row | Substance | T cell response of DRB1*1502 transgene positive animals compared with negative littermates / B10.RQB3 controls | mean cpm of lymph node cells challenged in vitro (positive control of the DRB1 peptide proliferation assay)
1 | Concanavalin A [Con A] | similar | > 100,000 cpm
2 | lipopolysaccharide [LPS] | similar | 

— patent publication US5965787A, “HLA-DRBI peptides with specific binding affinity for HLA-DQ molecules: prevention and treatment of rheumatoid arthritis” (Mayo Foundation for Medical Education and Research, priority 1995, dated 1999)
